Laboratory results reported in US11111238B2, “Coumarin derivatives, processes for their preparation and uses thereof for the treatment of cancer” (Lead Discovery Center GmbH, priority 2017, dated 2021).
pIC50: −log10 of the molar value.

Key:
[1] = molecular target: mitochondrial RNA-polymerase (POLRMT) (Mus musculus, UniProt Q8BKF1); assay: Homogeneous TR-FRET assay for mitochondrial transcription activity; assay type: biochemical; conditions: homogeneous TR-FRET assay according to Example 4; activity class
Procedure, shortened: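 Mouse POLRMT, TFAM and TFB2M with linearized pUC-LSP template in 10 mM Tris-HCl pH 7.5, 10 mM MgCl2, 40 mM NaCl; compounds at 10 μM or serial dilution, 10 min RT preincubation. Started with 500 μM each […], 2 h RT; 407 bp RNA product detected by hybridized Eu-cryptate/ATTO647N probe TR-FRET (ex 340, em 665 nm).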

[2] = tested on: mitochondrial transcription (7S RNA) in HeLa cells; assay: Quantitative real time-PCR assay of inhibition of mitochondrial transcription (cellular qPCR assay IMT); assay type: cell-based; conditions: Homo sapiens, 4 h compound incubation, qRT-PCR according to Example 5, activity class
Experimental: Quantitative real-time PCR (qRT-PCR), based on the TagMan™ (Thermo Fisher Scientific, Waltham Mass.) technology, was carried out essentially as described in (Heid et al., 1996). HeLa cells were plated one day before compound treatment in RPMI medium supplemented with 10% Fetal Calf Serum and 2 mM L-glutamine. Cells were incubated with dilution series of compounds or vehicle (DMSO) for 4 h, prior to harvest and extraction of the RNA using the RNeasy Mini Kit (Qiagen, Hilden D), according to the manufacturer's instructions. RNA concentrations were measured spectroscopically, using a NanoDrop-2000 (Thermo Fisher Scientific, Waltham Mass.) and normalized prior to cDNA synthesis, using a ‘High-Capacity cDNA Reverse Transcription Kit’ (Thermo Fisher Scientific, Waltham Mass.). qRT-PCR was carried out using the ‘TaqMan Fast Advance Master Mix’ (Thermo Fisher Scientific, Waltham Mass.) on a 7500 Fast Real-Time PCR machine (Applied Biosystems, Foster City Calif.)
For these measurements, three genes were used to compare the effect of the scrutinized compounds in relation to their concentration. The POLRMT-gene was used to detect potential influences on nuclear transcription. Mitochondrial transcription in vivo was monitored by measurements 7S RNA. The TBP (TATA-box binding protein) gene was employed as the control (housekeeping gene) during qRT-PCR. The short-lived mitochondrial 7S RNA, which is not post-transcriptionally stabilized, allowed us to monitor rapid changes in mitochondrial transcription activity following compound addition. Biological triplicates were analyzed using the comparative CT Method (ΔΔCt) method (Bubner and Baldwin, 2004) and reported as Rq % values (Rq=Relative quantification=2-ΔΔCt).

mitochondrial RNA-polymerase (POLRMT), sequence (Q8BKF1 42-1207): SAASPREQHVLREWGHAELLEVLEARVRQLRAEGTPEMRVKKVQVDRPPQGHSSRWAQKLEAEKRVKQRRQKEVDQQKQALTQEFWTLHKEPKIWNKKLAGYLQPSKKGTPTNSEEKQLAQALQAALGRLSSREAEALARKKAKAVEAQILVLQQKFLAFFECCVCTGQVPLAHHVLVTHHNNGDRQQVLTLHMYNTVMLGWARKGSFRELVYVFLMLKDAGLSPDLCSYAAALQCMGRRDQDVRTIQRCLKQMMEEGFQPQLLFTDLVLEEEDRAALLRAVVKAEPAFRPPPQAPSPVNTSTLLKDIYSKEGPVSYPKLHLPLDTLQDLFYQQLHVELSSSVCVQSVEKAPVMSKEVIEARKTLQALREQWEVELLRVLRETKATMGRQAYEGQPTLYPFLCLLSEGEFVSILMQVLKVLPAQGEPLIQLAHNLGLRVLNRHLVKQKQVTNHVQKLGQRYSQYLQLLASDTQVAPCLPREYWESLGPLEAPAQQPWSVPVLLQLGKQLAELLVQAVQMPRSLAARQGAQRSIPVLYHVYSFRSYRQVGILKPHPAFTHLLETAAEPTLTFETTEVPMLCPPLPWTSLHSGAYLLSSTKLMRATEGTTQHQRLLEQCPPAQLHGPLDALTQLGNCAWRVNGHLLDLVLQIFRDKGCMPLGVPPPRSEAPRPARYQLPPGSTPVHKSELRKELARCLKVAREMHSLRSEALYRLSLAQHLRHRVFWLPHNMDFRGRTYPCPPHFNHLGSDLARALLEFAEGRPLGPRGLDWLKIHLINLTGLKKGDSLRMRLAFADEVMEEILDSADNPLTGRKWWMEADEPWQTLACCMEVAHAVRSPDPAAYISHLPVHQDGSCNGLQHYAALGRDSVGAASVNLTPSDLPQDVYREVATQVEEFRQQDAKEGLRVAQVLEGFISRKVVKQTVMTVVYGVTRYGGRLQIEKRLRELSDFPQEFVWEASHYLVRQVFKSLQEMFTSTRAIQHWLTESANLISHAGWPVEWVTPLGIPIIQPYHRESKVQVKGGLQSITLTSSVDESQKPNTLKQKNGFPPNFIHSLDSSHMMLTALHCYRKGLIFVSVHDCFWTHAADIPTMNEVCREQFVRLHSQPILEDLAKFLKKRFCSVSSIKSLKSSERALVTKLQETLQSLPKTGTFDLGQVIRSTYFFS

pIC50 [1]	pIC50 [2]	Structure (SMILES)
> 7.70	> 8.00	Cc1ccccc1-c1cc(=O)oc2cc(OC(C)C(=O)NC3CC3)ccc12 (stereo not shown) [Compound 25, N-cyclopropyl-2-[4-(o-tolyl)-2-oxo-chromen-7-yl]oxy-propanamide]
> 7.70	> 8.00	C[C@@H](Oc1ccc2c(-c3ccc(F)cc3Cl)cc(=O)oc2c1)C(=O)N1CCN(C(=O)CCl)CC1 [Compound 166, (R)-4-(2-chloro-4-fluorophenyl)-7-((1-(4-(2-chloroacetyl)piperazin-1-yl)-1-oxopropan-2-yl)oxy)-2H-chromen-2-one]
> 7.70	> 8.00	CC(Oc1ccc2c(-c3ccccc3Cl)cc(=O)oc2c1)C(=O)N1CCCC(C)(C(=O)O)C1 (stereo not shown) [Compound 54, 1-[2-[4-(2-chlorophenyl)-2-oxo-chromen-7-yl]oxypropanoyl]-3-methyl-piperidine-3-carboxylic acid]
7.00 to 7.70	> 8.00	CC(C)OC(=O)OCOC(=O)C[C@H]1CCCN(C(=O)[C@@H](C)Oc2ccc3c(-c4ccc(F)cc4Cl)cc(=O)oc3c2)C1 [Compound 127, isopropoxycarbonyloxymethyl 2-[(3R)-1-[(2R)-2-[4-(2-chloro-4-fluoro-phenyl)-2-oxo-chromen-7-yl]oxypropanoyl]-3-piperidyl]acetate]
> 7.70	> 8.00	CC(Oc1ccc2c(-c3ccccc3Cl)cc(=O)oc2c1)C(=O)N1CCCC(C(=O)O)C1 (stereo not shown) [Compound 9, 1-[2-[4-(2-chlorophenyl)-2-oxo-chromen-7-yl]oxypropanoyl]piperidine-3-carboxylic acid]
> 7.70	> 8.00	C=CC(=O)N1CCN(C(=O)[C@@H](C)Oc2ccc3c(-c4ccc(F)cc4Cl)cc(=O)oc3c2)CC1 [Compound 164, 4-(2-chloro-4-fluoro-phenyl)-7-[(1R)-1-methyl-2-oxo-2-(4-prop-2-enoylpiperazin-1-yl)ethoxy]chromen-2-one]
> 7.70	> 8.00	Cc1cscc1-c1cc(=O)oc2cc(O[C@H](C)C(=O)N3CCC[C@H](C(=O)O)C3)ccc12 [Compound 182, (3S)-1-[(2R)-2-[4-(4-methyl-3-thienyl)-2-oxo-chromen-7-yl]oxypropanoyl]piperidine-3-carboxylic acid]
> 7.70	> 8.00	CC(Oc1ccc2c(-c3ccccc3Cl)cc(=O)oc2c1)C(=O)N1CCC[C@H](C(=O)O)C1 (stereo partly drawn) [Compound 33, (3S)-1-[2-[4-(2-chlorophenyl)-2-oxo-chromen-7-yl]oxypropanoyl]piperidine-3-carboxylic acid]
7.00 to 7.70	> 8.00	CC(Oc1ccc2c(-c3ccccc3Cl)cc(=O)oc2c1)C(=O)N(C)C (stereo not shown) [Compound 93, 2-[4-(2-chlorophenyl)-2-oxo-chromen-7-yl]oxy-N,N-dimethyl-propanamide]
7.00 to 7.70	> 8.00	CC(Oc1ccc2c(-c3ccc(F)cc3Cl)cc(=O)oc2c1)C(=O)N1CCCC(S(N)(=O)=O)C1 (stereo not shown) [Compound 69, 1-[2-[4-(2-chloro-4-fluoro-phenyl)-2-oxo-chromen-7-yl]oxypropanoyl]piperidine-3-sulfonamide]
7.00 to 7.70	7.30 to 8.00	CCNC(=O)C(C)Oc1ccc2c(-c3ccccc3C)cc(=O)oc2c1 (stereo not shown) [Compound 85, N-ethyl-2-[4-(o-tolyl)-2-oxo-chromen-7-yl]oxy-propanamide]
7.00 to 7.70	> 8.00	Cc1ccccc1-c1cc(=O)oc2cc(OC(C)C(=O)NC(C)C)ccc12 (stereo not shown) [Compound 62, N-isopropyl-2-[4-(o-tolyl)-2-oxo-chromen-7-yl]oxy-propanamide]
7.00 to 7.70	> 8.00	CC(C)OC(=O)OCOC(=O)[C@H]1CCCN(C(=O)[C@@H](C)Oc2ccc3c(-c4ccc(F)cc4Cl)cc(=O)oc3c2)C1 [Compound 121, (S)-((isopropoxycarbonyl)oxy)methyl 1-((R)-2-((4-(2-chloro-4-fluorophenyl)-2-oxo-2H-chromen-7-yl)oxy)propanoyl)piperidine-3-carboxylate]
7.00 to 7.70	> 8.00	C[C@@H](Oc1ccc2c(-c3ccc(F)cc3Cl)cc(=O)oc2c1)C(=O)N1CC[C@H](CC(=O)O)C1 [Compound 145, 2-[(3R)-1-[(2R)-2-[4-(2-chloro-4-fluoro-phenyl)-2-oxo-chromen-7-yl]oxypropanoyl]pyrrolidin-3-yl]acetic acid]
> 7.70	> 8.00	Cc1ccccc1-c1cc(=O)oc2cc(OC(C)C(=O)N3CCCC(C(=O)O)C3)ccc12 (stereo not shown) [Compound 8, 1-[2-[4-(o-tolyl)-2-oxo-chromen-7-yl]oxypropanoyl]piperidine-3-carboxylic acid]
> 7.70	> 8.00	CCC(=O)N1CCN(C(=O)[C@@H](C)Oc2ccc3c(-c4ccc(F)cc4Cl)cc(=O)oc3c2)CC1 [Compound 168, 4-(2-chloro-4-fluoro-phenyl)-7-[(1R)-1-methyl-2-oxo-2-(4-propanoylpiperazin-1-yl)ethoxy]chromen-2-one]
7.00 to 7.70	7.30 to 8.00	CCOC(=O)C(C)Oc1ccc2c(-c3ccccc3Br)cc(=O)oc2c1 (stereo not shown) [Compound 81, ethyl 2-[4-(2-bromophenyl)-2-oxo-chromen-7-yl]oxypropanoate]
> 7.70	–	CCOC(=O)C(C)Oc1ccc2c(-c3ccccc3Cl)cc(=O)oc2c1 (stereo not shown) [Compound 40, ethyl 2-[4-(2-chlorophenyl)-2-oxo-chromen-7-yl]oxypropanoate]
–	> 8.00	C[C@@H](Oc1ccc2c(-c3ccc(F)cc3Cl)cc(=O)oc2c1)C(=O)N1CCC[C@H](C(=O)OCCN2CCOCC2)C1 [Compound 119, 2-morpholinoethyl (3S)-1-[(2R)-2-[4-(2-chloro-4-fluoro-phenyl)-2-oxo-chromen-7-yl]oxypropanoyl]piperidine-3-carboxylate]
7.00 to 7.70	–	CC(Oc1ccc2c(-c3ccccc3Cl)cc(=O)oc2c1)C(=O)N1CCC(F)(F)CC1 (stereo not shown) [Compound 74, 4-(2-chlorophenyl)-7-[2-(4,4-difluoro-1-piperidyl)-1-methyl-2-oxo-ethoxy]chromen-2-one]
7.00 to 7.70	–	Cc1ccccc1-c1cc(=O)oc2cc(OC(C)C(=O)N3CCC(CC(=O)O)CC3)ccc12 (stereo not shown) [Compound 60, 2-[1-[2-[4-(o-tolyl)-2-oxo-chromen-7-yl]oxypropanoyl]-4-piperidyl]acetic acid]
7.00 to 7.70	–	COC(=O)C[C@H]1CCN(C(=O)[C@@H](C)Oc2ccc3c(-c4ccc(F)cc4Cl)cc(=O)oc3c2)C1 [Compound 142, methyl 2-[(3R)-1-[(2R)-2-[4-(2-chloro-4-fluoro-phenyl)-2-oxo-chromen-7-yl]oxypropanoyl]pyrrolidin-3-yl]acetate]
7.00 to 7.70	–	CCNC(=O)C(C)Oc1ccc2c(-c3cccc(F)c3Cl)cc(=O)oc2c1 (stereo not shown) [Compound 68, 2-[4-(2-chloro-3-fluoro-phenyl)-2-oxo-chromen-7-yl]oxy-N-ethyl-propanamide]
6.00 to 7.00	–	COC(=O)C1CN(C(=O)[C@@H](C)Oc2ccc3c(-c4ccc(F)cc4Cl)cc(=O)oc3c2)CCN1C (mixture of isomers) [Compound 137, methyl 1-methyl-4-[rac-(2R)-2-[4-(2-chloro-4-fluoro-phenyl)-2-oxo-chromen-7-yl]oxypropanoyl]piperazine-2-carboxylate]
7.00 to 7.70	–	Cc1ccccc1-c1cc(=O)oc2cc(OC(C)C(=O)N3CCC(F)(F)CC3)ccc12 (stereo not shown) [Compound 71, 7-[2-(4,4-difluoro-1-piperidyl)-1-methyl-2-oxo-ethoxy]-4-(o-tolyl)chromen-2-one]
> 7.70	–	C[C@@H](Oc1ccc2c(-c3ccc(F)cc3Cl)cc(=O)oc2c1)C(=O)N1CCC[C@H](C(N)=O)C1 [Compound 132, (3S)-1-[(2R)-2-[4-(2-chloro-4-fluoro-phenyl)-2-oxo-chromen-7-yl]oxypropanoyl]piperidine-3-carboxamide]
7.00 to 7.70	–	C[C@@H](Oc1ccc2c(-c3ccccc3C#N)cc(=O)oc2c1)C(=O)N1CCC[C@H](C(=O)O)C1 [Compound 162, (3S)-1-[(2R)-2-[4-(2-cyanophenyl)-2-oxo-chromen-7-yl]oxypropanoyl]piperidine-3-carboxylic acid]
> 7.70	–	Cc1ccccc1-c1cc(=O)oc2cc(OC(C)C(=O)Nc3ccc(CCO)cc3)ccc12 (stereo not shown) [Compound 19, N-[4-(2-hydroxyethyl)phenyl]-2-[4-(o-tolyl)-2-oxo-chromen-7-yl]oxy-propanamide]

Structure (SMILES)	pIC50 [1]	pIC50 [2]
C[C@@H](Oc1ccc2c(-c3ccc(F)cc3Cl)cc(=O)oc2c1)C(=O)N1CCC[C@@H](C(=O)O)C1 [Compound 108, (3R)-1-[(2R)-2-[4-(2-chloro-4-fluoro-phenyl)-2-oxo-chromen-7-yl]oxypropanoyl]piperidine-3-carboxylic acid]	> 7.70	–
